For the series, the system named is Aqueous solubility in PBS, percent remaining. As to the kind of experiment: qHTS Assay for Inhibitors of Bacillus subtilis Sfp phosphopantetheinyl transferase (PPTase): Aqueous Solubility in PBS. Conditions: active compounds read high. The source says:
The covalent attachment of a phosphopantetheinyl (4'-PP) arm to a variety of synthases and other proteins is a key posttranslational protein modification. The 4'-PP is installed on the proteins post-translationally from coenzyme A (CoA) on a conserved serine residue by action of phosphopantetheinyl transferase (PPTase) enzymes. Phosphopantetheinylation is essential for synthase activity, and removal of the PPTase gene precludes natural product synthesis in microorganisms, or in the case of fatty acid biosynthesis, renders the organism unviable. PPTase enzymes belong to a distinct structural superfamily. Within bacteria, these enzymes are grouped into two classes based upon primary structure, the AcpS-Type and Sfp-Type PPTases.
Sfp-type PPTases, corresponding to an activator of surfactin production in Bacillus subtilis, are responsible for modifying type I polyketide and nonribosomal peptide synthases of prokaryotes. Sfp-type PPTases are responsible for the activation of a variety of pathogen-associated virulence factors. […]
2microM of compound is incubated in PBS buffer at pH 7; the reference compound is procaine. Compounds are incubated at 37 deg C for the pre-determined time periods and the when aliquots are removed. Samples are analyzed with LC-MS/MS.
(In general: qHTS replaces the single test concentration by a dilution series.)

SMILES strings stand for the structures.

One compound from PubChem BioAssay AID624112 (National Center for Advancing Translational Sciences (NCATS), 2012) can be followed below.

In the case of `COc1ccnc(NC(=S)N2CCN(c3ncc(C(F)(F)F)cc3Cl)CC2)c1`, the solubility, percent remaining is 100%.
